Data reported in patent US7229979B2, “Hypoestoxides, derivatives and agonists thereof for use as stent-coating agents” (Immune Modulation, Inc., priority 2003, dated 2007).

System: platelets (arachidonic acid-induced platelet aggregation)
Test: Arachidonic acid-induced platelet aggregation in platelet-rich plasma
Type: cell-based, New Zealand rabbit
Conditions: 30 μM; arachidonic acid 100 μM; rabbit platelet-rich plasma
Procedure: The inhibitory effect of hypoestoxides according to the present invention on platelet aggregation was studied. Platelet-rich plasma from a New Zealand rabbit was used as the source of platelets. Arachidonic acid (100 μM) was used to induce maximal platelet aggregation in vitro. Optical density of aggregation was measured by densitometry.

## C=C1C(=O)C[C@H]2C[C@@H]3O[C@@]3(C)CC[C@@H]3O[C@@]3(C)C[C@@H](OC(C)=O)[C@H]1C2(C)C [Hypoestoxide, hypoestoxide]
  % Inhibition of arachidonic acid-induced platelet aggregation: 100%
